As usually defined, the Kd is the constant that tells how readily two partners part at equilibrium. The low end stands for a tighter complex, the high end for a looser complex. The term IC50 denotes the concentration that inhibits the measured activity by half.

Here are results for 4 compounds from patent US9261497B2, “Method of treating cancer with modulators of SCFSkp2” (New York University, priority 2012, dated 2016).

The target in test [1] is T1, His6-Skp2-Skp1-Cks1 complex (Homo sapiens, UniProt P61024+Q13309).
T1 construct: His6-tagged human Skp2 (residues 89-424); Human full-length Cks1 was produced as described; made in house
T1 sequence (Q13309 89-424 limits assumed): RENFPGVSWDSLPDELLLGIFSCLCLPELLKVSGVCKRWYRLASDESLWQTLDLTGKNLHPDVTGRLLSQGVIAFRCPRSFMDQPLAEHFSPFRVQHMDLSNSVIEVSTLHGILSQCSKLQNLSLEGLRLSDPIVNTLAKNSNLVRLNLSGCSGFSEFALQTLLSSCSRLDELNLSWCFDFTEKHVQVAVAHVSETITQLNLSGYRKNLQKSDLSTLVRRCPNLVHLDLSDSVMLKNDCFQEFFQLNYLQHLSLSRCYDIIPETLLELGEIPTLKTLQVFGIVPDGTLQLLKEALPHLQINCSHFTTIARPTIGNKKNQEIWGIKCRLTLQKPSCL
T1 sequence (P61024 whole entry, the tested form may be a part): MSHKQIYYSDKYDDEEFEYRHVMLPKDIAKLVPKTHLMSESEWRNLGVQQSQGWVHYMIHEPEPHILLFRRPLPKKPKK
In words: Surface plasmon resonance (SPR). It counts as binding. To be noted: 1:1 interaction model; 25° C. A general note: Surface plasmon resonance follows binding to a sensor surface in real time, without labels.

In the next test the test system is p27 in 501 Mel cells. In words: Cycloheximide p27 half-life in 501 Mel cells. Format: cell-based, human. To be noted: pretreated 16 hours with 10 μM inhibitor, vehicle half-life 1 hour. The procedure: To assess the mechanism of p27 induction, cycloheximide half-lives were analyzed in 501 Mel cell lines pretreated with each inhibitor (10 μM) or 0.1% DMSO (vehicle). p27 degraded rapidly with a half-life of 1 hour with vehicle, and this rate was slowed by the inhibitors (FIG. 4C). […] Protein levels of Skp2 and Skp1 remained constant.
Whole cell extracts were prepared and immunoblotted as previously described Dorrello et al., “S6K1- and betaTRCP-mediated Degradation of PDCD4 Promotes Protein Translation and Cell Growth,” Science 314:467-471 (2006), which is hereby incorporated by reference in its entirety. For knockdown of Skp2 or p27, shRNAs were induced with 2 ng/ml doxycycline for 48 hours, with the last 16 hours co-treated with 0.1% Vehicle or 10 μM inhibitors as indicated. For cycloheximide chase, cells were pretreated 16 h with 0.1% Vehicle or 10 μM inhibitors, followed by 20 ng/ml cycloheximide (Sigma) and whole cell extracts collected for each time point. 20 ng/ml cycloheximide (Sigma) was added to each plate and whole cell extract was collected for each time point. Scanning densitometry was performed on immunoblots using Image J software. For cell cycle analysis, cells were treated with 0.1% Vehicle or 10 μM inhibitors for 16 h. […] Signal was detected using the Becton Dickson LSRII flow cytometer and cell cycle profiles were analyzed with FloJo.

A further test deals with LNCaP. In words: Cell cycle FACS analysis, LNCaP. It counts as cell-based, human. Conditions: 10 μM for 16 hours. How it is done:
Whole cell extracts were prepared and immunoblotted as previously described Dorrello et al., “S6K1- and betaTRCP-mediated Degradation of PDCD4 Promotes Protein Translation and Cell Growth,” Science 314:467-471 (2006), which is hereby incorporated by reference in its entirety. For knockdown of Skp2 or p27, shRNAs were induced with 2 ng/ml doxycycline for 48 hours, with the last 16 hours co-treated with 0.1% Vehicle or 10 μM inhibitors as indicated. For cycloheximide chase, cells were pretreated 16 h with 0.1% Vehicle or 10 μM inhibitors, followed by 20 ng/ml cycloheximide (Sigma) and whole cell extracts collected for each time point. Scanning densitometry was performed on immunoblots using Image J software. For cell cycle analysis, cells were treated with 0.1% Vehicle or 10 μM inhibitors for 16 h. 1×10^6 cells were fixed in 70% ethanol for 2 h, treated with 200 μg/ml RNase A (Invitrogen) for 30 minutes, and stained with 20 μg/ml Propidium Iodine (Sigma). All samples were assayed in triplicates. Signal was detected using the Becton Dickson LSRII flow cytometer and cell cycle profiles were analyzed with FloJo.
Background: A flow cytometer gives signals particle by particle.

In a further test the test system is ARP-1. In words: Viable cells, multiple myeloma ARP-1. Format: cell-based, human. To be noted: 24 hours. How it is done: (§1) Viable and metabolically active cells were assayed using CellTiter-Blue (Promega) or PrestoBlue (Invitrogen) following manufacturer's instruction. In a 96 well plate format, 15×10^3 cells were pretreated with 0.1% Vehicle or increasing concentration of inhibitors as noted (for 16 h, 24 h, 48 h, and/or 72 hr) and fluorescence was detected on the SpectraMax M2e (Molecular Devices) after 30 min incubation with dye.

Another test has as its target T2, His-6Skp1-Skp2-Cks1 (Homo sapiens, UniProt P61024+Q13309).
T2 construct: His6-tagged human Skp2 (residues 89-424); Human full-length Cks1 was produced as described; made in house
Description: Differential scanning fluorimetry (protein melt). Format: binding. Conditions: compound 75 μM; protein 1.5 μM. How it is done: Protein melt assays were carried out following the manufacturer's protocol on the LightCycler 480 System II (Roche) using Sypro Orange dye (Sigma). Fluorescence (465 nm excitation/580 nm detection) was acquired (10 data points/sec) at a ramp rate of 0.06° C./sec between 20° C. and 85° C. Melting temperatures were calculated using the LightCycler 480 Protein Melt analysis tool (Roche).
For orientation: Differential scanning fluorimetry follows unfolding on heating by fluorescence.

The test system of the next test is KSM-11. Description: Viable cells, multiple myeloma KSM-11. Format: cell-based, human. Conditions: 24 hours. The procedure:
as §1

For the next test, the system named is MCF-7. In words: Viable and metabolically active cells, MCF-7. Format: cell-based, human. Conditions: 16 h. How it is done:
as §1

T2 sequence (Q13309 89-424 limits assumed): as the sequence (Q13309 89-424 limits assumed) above
T2 sequence (P61024 whole entry, the tested form may be a part): as the sequence (P61024 whole entry, the tested form may be a part) above

With `O=C(NN=Cc1cc(Br)cc(Br)c1O)C(=Cc1ccccc1O)NC(=O)c1ccccc1` [Compound C20], binding in test [1] was put at a Kd of 47 ± 14 µM. The p27 half-life in the test with p27 in 501 Mel cells amounted to 5 h.
As for `COC(=O)C1=C(C)N(c2ccc(Br)cc2)C(=O)C1=Cc1ccccc1O` [Compound C2], in the test with LNCaP, the G1 cells entry is listed as “a mild, but significant, increase in G1 cells” and the S phase cells result is on record as “a reduction in S phase cells”.
Take `O=C(O)COc1ccc(Br)cc1C=C1SC(=S)N(Cc2cccnc2)C1=O` [Compound C1]: the IC50 with ARP-1 was 3.84 µM; in the test on KSM-11 it was 1840 nM. Also, at His-6Skp1-Skp2-Cks1, the “Shift of melting temperature (Tm) of purified protein complex” value is “shifted the melting temperature”. Besides, the “Rate of active cells” value in the test on MCF-7 is “a lower rate of active cells”.
Regarding `O=C(O)COc1ccc(C=C2SC(=O)N(CC(=O)c3ccc(Cl)cc3)C2=O)cc1` [Compound C16], the p27 half-life in the test with p27 in 501 Mel cells was 3 h.
